Experimental data: paper PMC9145483, “Substituted Purines as High-Affinity Histamine H3 Receptor Ligands” (Pharmaceuticals, 2022)
Where two headings read alike, the source gives them in different places.

How the values were obtained:
human histamine H3R = target: T1, human histamine H3R (Homo sapiens, UniProt Q9Y5N1); experiment: Human histamine H3 radioligand displacement ([3H]Nα-methylhistamine); format: binding
T1 construct: expressed in transfected cells; host or cells: HEK-293 cells, stably expressing; membrane preparations
T1 sequence (Q9Y5N1 whole entry): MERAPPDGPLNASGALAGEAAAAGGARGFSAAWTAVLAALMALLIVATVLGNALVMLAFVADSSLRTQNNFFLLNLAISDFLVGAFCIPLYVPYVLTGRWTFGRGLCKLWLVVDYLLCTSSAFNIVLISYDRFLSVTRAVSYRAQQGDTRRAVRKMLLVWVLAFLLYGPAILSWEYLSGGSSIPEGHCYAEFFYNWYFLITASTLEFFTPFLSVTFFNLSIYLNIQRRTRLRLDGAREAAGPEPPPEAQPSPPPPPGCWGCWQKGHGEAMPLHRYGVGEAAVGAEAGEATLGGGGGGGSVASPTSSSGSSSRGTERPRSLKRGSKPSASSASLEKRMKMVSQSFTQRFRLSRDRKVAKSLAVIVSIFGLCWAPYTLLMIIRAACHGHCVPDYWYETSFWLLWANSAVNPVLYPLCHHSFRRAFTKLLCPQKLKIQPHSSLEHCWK

[1] = MTT cytotoxicity assay, HepG2; format: cell-based; details: human, HepG2 hepatoma cells, 0.1 to 100 μM
Procedure: (§1) The potential general nephrotoxic, neurotoxic and hepatotoxic effects of selected H3R ligands 3d and 3h were investigated to determine their influence on the viability of normal HEK-293, neuroblastoma SH-SY5Y and hepatoma HepG2 cell lines by a colorimetric MTT reduction assay (Table 2).
(§2) Cultures of HEPG2 (ATCC-HB-8065 TM), HEK293 (ATCC CRL-1573 TM) and SHSY-5Y (ATCC CRL-2266 TM) cell lines were used as experimental models. Cells were maintained in a DMEM culture medium supplemented with 10% Foetal Bovine Serum (FBS), in an incubator at 37 °C and a humidified atmosphere with 5% CO2. Cells were seeded on culture plates, were allowed to grow for 24 h and then were treated with the synthesized compounds for 48 h with 100, 10, 1 and 0.1 µM concentrations. Negative cell death control, corresponding to untreated cells, and positive cell death control, corresponding to cells treated with 10% SDS, were maintained.
(§3) In a colorimetric MTT reduction assay, sterile 96-well culture plates were used. An amount of 2000–2500 cells per well were seeded. Upon completion of treatment, the culture medium was vacuum aspirated and washed with 1x PBS, and then 100 μL of 0.5 mg/mL MTT solution was added for a period of 4 h at 37 °C for formazan crystal formation. At the end of the 4 h, 100 μL of 10% SDS in HCl was added and kept overnight in an incubator at 37 °C to dissolve the formed crystals. The absorbance of each well was measured on the Synergy HTX microplate reader at 570 nm wavelength.

hepatoma HepG2 cell line = experiment: MTT cytotoxicity assay, HepG2; format: cell-based; details: 48 h, 0.1 to 100 μM
Procedure: as §1, §2, §3

[2] = MTT cytotoxicity assay, HEK-293; format: cell-based; details: human, HEK-293 cells, HEK-293, MTT, 0.1 to 100 μM
Procedure: as §1, §2
as §3, with “At the end of the 4 h, 100 μL of 10% SDS in HCl was added and kept overnight in an incubator at 37 °C to dissolve the formed crystals.” left out

HEK-293 cell line = experiment: MTT cytotoxicity assay, HEK-293; format: cell-based; details: HEK-293, MTT, 48 h, 0.1 to 100 μM
Procedure: as §1, §2
as §3, with “At the end of the 4 h, 100 μL of 10% SDS in HCl was added and kept overnight in an incubator at 37 °C to dissolve the formed crystals.” left out

[3] = MTT cytotoxicity assay, SH-SY5Y; format: cell-based; details: human, SH-SY5Y neuroblastoma cells, 0.1 to 100 μM
Procedure: as §1, §2
as §3, with “At the end of the 4 h, 100 μL of 10% SDS in HCl was added and kept overnight in an incubator at 37 °C to dissolve the formed crystals.” left out

[4] = test system: neuroblastoma SH-SY5Y cell line; experiment: MTT cytotoxicity assay, SH-SY5Y; format: cell-based; details: 48 h, 0.1 to 100 μM
Procedure: as §1, §2
as §3, with “At the end of the 4 h, 100 μL of 10% SDS in HCl was added and kept overnight in an incubator at 37 °C to dissolve the formed crystals.” left out

H3R = target: H3R; design: method as in PMID 30025902, PMID 31176569; details: H3R affinity of previous ligands; cited from earlier work
[5] = [3H]Nα-methylhistamine 2 nM, HEK-293 membranes stably expressing human H3R, mean [95% CI], at least three experiments in duplicate, read-out: Ki (nM) [95% CI nM]
[6] = restated in Table 3, read-out: Biological Activity Ki

Row | Ki (human histamine H3R; [5]) | Ki (human histamine H3R; [6]) | Structure (SMILES) | other results
1 | 105 nM | 105 nM | Fc1ccc(Cn2cnc3c(N4CCC(N5CCCCC5)CC4)ncnc32)cc1 [Compound 3a, 6-([1,4’-Bipiperidin]-1’-yl)-9-(4-fluorobenzyl)-9H-purine] | 
2 | 39.4 nM | 39.4 nM | Clc1ccc(Cn2cnc3c(N4CCC(N5CCCCC5)CC4)ncnc32)cc1 [Compound 3b, 6-([1,4’-Bipiperidin]-1’-yl)-9-(4-chlorobenzyl)-9H-purine] | 
3 | 28.8 nM | 28.8 nM | N#Cc1ccc(Cn2cnc3c(N4CCC(N5CCCCC5)CC4)ncnc32)cc1 [Compound 3c, 4-((6-([1,4’-Bipiperidin]-1’-yl)-9H-purin-9-yl)methyl)benzonitrile] | 
4 | 2.91 nM |  | Clc1cccc(Cl)c1Cn1cnc2c(N3CCC(N4CCCCC4)CC3)ncnc21 [Compound 3d, 6-([1,4’-Bipiperidin]-1’-yl)-9-(2,6-dichlorobenzyl)-9H-purine] | Ki (human histamine H3R; Table 3, read-out: Biological Activity −logKi (converted)): 2.88 nM; IC50 at 48 h [1]: > 30 µM; IC50 (hepatoma HepG2 cell line): 57.6 ± 12 µM
5 | 94.6 nM |  | Fc1ccc(Cn2cnc3c(N4CCC(N5CCCCC5)CC4)nc(Cl)nc32)cc1 [Compound 3e, 6-([1,4’-Bipiperidin]-1’-yl)-2-chloro-9-(4-fluorobenzyl)-9H-purine] | 
6 | 44.6 nM | 44.6 nM | Clc1ccc(Cn2cnc3c(N4CCC(N5CCCCC5)CC4)nc(Cl)nc32)cc1 [Compound 3f, 6-([1,4’-Bipiperidin]-1’-yl)-2-chloro-9-(4-chlorobenzyl)-9H-purine] | 
7 | 77.8 nM | 77.8 nM | N#Cc1ccc(Cn2cnc3c(N4CCC(N5CCCCC5)CC4)nc(Cl)nc32)cc1 [Compound 3g, 4-((6-([1,4’-Bipiperidin]-1’-yl)-2-chloro-9H-purin-9-yl)methyl)benzonitrile] | 
8 | 5.51 nM | 5.5 nM | Clc1nc(N2CCC(N3CCCCC3)CC2)c2ncn(Cc3c(Cl)cccc3Cl)c2n1 [Compound 3h, 6-([1,4’-Bipiperidin]-1’-yl)-2-chloro-9-(2,6-dichlorobenzyl)-9H-purine] | IC50 at 48 h [2]: > 30 µM; IC50 (HEK-293 cell line): 54.3 ± 3.54 µM; IC50 at 48 h [3]: > 30 µM; IC50 [4]: 32.4 ± 4.75 µM; IC50 at 48 h [1]: > 30 µM; IC50 (hepatoma HepG2 cell line): 33.8 ± 4.29 µM
9 |  |  | Clc1nc(N2CCC(N3CCCCC3)CC2)c2ccn(Cc3c(Cl)cccc3Cl)c2n1 [III] | Ki (H3R): 6 nM
10 |  |  | Clc1nc(N2CCC(N3CCCCC3)CC2)c2ccn(Cc3ccc4ccccc4c3)c2n1 [II] | Ki (H3R): 126 nM
11 |  |  | CNCCc1cnc[nH]1 [[^3H]N^α-methylhistamine, reference compound] | Kd (human histamine H3R; radioligand used at 2 nM at human H3R): 3.08 nM
